# In patent US8221737B2, “Hepatitis C virus inhibitors” (Enanta Pharmaceuticals, Inc., priority 2009, dated 2012):
# Test system: HCV 1b genotype replicon
# Assay: HCV replicon assay - qRT-PCR (HCV RNA detection)
# Format: cell-based
# Conditions: Hepatitis C virus, from the qRT-PCR or luciferase assay (not specified which), EC50 range class
# Excerpt: HCV replicon cell lines (kindly provided by R. Bartenschlager) isolated from colonies as described by Lohman et. al. (Lohman et al. (1999) Science 285: 110-113, expressly incorporated by reference in its entirety) and used for all experiments. The HCV replicon has the nucleic acid sequence set forth in EMBL Accession No.: AJ242651, the coding sequence of which is from nucleotides 1801 to 8406.
# The coding sequence of the published HCV replicon was synthesized and subsequently assembled in a modified plasmid pBR322 (Promega, Madison, Wis.) using standard molecular biology techniques. One replicon cell line (“SGR 11-7”) stably expresses HCV replicon RNA which consists of (i) the HCV 5′UTR fused to the first 12 amino acids of the capsid protein, (ii) the neomycin phosphotransferase gene (neo), (iii) the IRES from encephalomyocarditis virus (EMCV), and (iv) HCV NS2 to NS5B genes and the HCV 3′UTR. Another replicon cell line (“Huh-luc/neo-ET”) described by Vrolijk et. al. (Vrolijk et. al. (2003) Journal of Virological Methods 110:201-209, expressly incorporated by reference in its entirety) stably expresses HCV replicon RNA which consists of (i) the HCV 5′UTR fused to the first 12 amino acids of the capsid protein, (ii) the firefly luciferase reporter gene, (iii) the ubiquitin gene, (iv) the neomycin phosphotransferase gene (neo), (v) the IRES from encephalomyocarditis virus (EMCV), and (vi) HCV NS3 to NS5B genes that harbor cell culture adaptive mutations (E1202G, T12801, K1846T) and the HCV 3′UTR.
# These cell lines were maintained at 37° C., 5% CO2, 100% relative humidity in DMEM (Cat#11965-084, Invitrogen), with 10% fetal calf serum (“FCS”, Invitrogen), 1% non-essential amino acids (Invitrogen), 1% of Glutamax (Invitrogen), 1% of 1 OOX penicillin/streptomycin (Cat#15140-122, Invitrogen) and Geneticin (Cat#10131-027, Invitrogen) at 0.75 mg/ml or 0.5 mg/ml for 11-7 and Huh-luc/neo-ET cells, respectively.
# EC50 values of single agent compounds and combinations were determined by HCV RNA detection using quantitative RT-PCR, according to the manufacturer's instructions, with a TAQMAN® One-Step RT-PCR Master Mix Reagents Kit (Cat# AB 4309169, Applied Biosystems) on an ABI Model 7500 thermocycler. The TaqMan primers used for detecting and quantifying HCV RNA were obtained from Integrated DNA Technologies. HCV RNA was normalized to GAPDH RNA levels in drug-treated cells, which is detected and quantified using the Human GAPDH Endogenous Control Mix (Applied Biosystems, AB 4310884E). Total cellular RNA is purified from 96-well plates using the RNAqueous 96 kit (Ambion, Cat# AM1812). Chemical agent cytotoxicity is evaluated using an MTS assay according to the manufacturer's directions (Promega).
# The compounds of the present invention can be effective against the HCV 1b genotype. It should also be understood that the compounds of the present invention can inhibit multiple genotypes of HCV. In one embodiment compound of the present invention are active against the 1a, 1b, 2a, 2b, 3a, 4a, and 5a genotypes. […] EC50 ranges against HCV 1b are as follows: A>10 nM; B1-10 nM; C<1 nM.
row,Structure (SMILES),EC50
1,COC(=O)N[C@H](C(=O)N1CCC[C@H]1c1ncc(-c2ccc3cc(-c4ccc5[nH]c(N6CCCN6C(=O)[C@@H](NC(=O)OC)C(C)C)nc5c4)ccc3c2)[nH]1)C(C)C [Example 368],< 1 nM
2,COC(=O)N[C@H](C(=O)N1CCC[C@H]1c1nc2ccc(C#Cc3ccc(-c4cnc([C@@H]5CCCN5C(=O)N(NC(=O)OC)C(C)C)[nH]4)cc3)cc2[nH]1)C(C)C [Example 369],< 1 nM
3,CCN(NC(=O)OC)C(=O)N1CCC[C@H]1c1ncc(-c2ccc(C#Cc3ccc4nc([C@@H]5CCCN5C(=O)[C@@H](NC(=O)OC)C(C)C)[nH]c4c3)cc2)[nH]1 [Example 370],< 1 nM
4,CCCN(NC(=O)OC)C(=O)N1CCC[C@H]1c1ncc(-c2ccc(C#Cc3ccc4nc([C@@H]5CCCN5C(=O)[C@@H](NC(=O)OC)C(C)C)[nH]c4c3)cc2)[nH]1 [Example 371],< 1 nM
5,COC(=O)N[C@H](C(=O)N1CCC[C@H]1c1nc2ccc(C#Cc3ccc(-c4cnc([C@@H]5CCCN5C(=O)N(CC(C)C)NC(=O)OC)[nH]4)cc3)cc2[nH]1)C(C)C [Example 372],< 1 nM
6,COC(=O)NN(C(=O)N1CCC[C@H]1c1ncc(-c2ccc(-c3ccc(-c4cnc([C@@H]5CCCN5C(=O)N(NC(=O)OC)C(C)C)[nH]4)cc3)cc2)[nH]1)C(C)C [Example 373],< 1 nM
7,COC(=O)N[C@H](C(=O)N1CCC[C@H]1c1ncc(-c2ccc(-c3ccc(-c4cnc([C@@H]5CCCN5C(=O)N(NC(=O)OC)C(C)C)[nH]4)cc3)cc2)[nH]1)C(C)C [Example 374],< 1 nM
8,CCN(NC(=O)OC)C(=O)N1CCC[C@H]1c1ncc(-c2ccc(-c3ccc(-c4cnc([C@@H]5CCCN5C(=O)[C@@H](NC(=O)OC)C(C)C)[nH]4)cc3)cc2)[nH]1 [Example 375],< 1 nM
